Data taken from US10723699B2 (Hyundai Pharm Co., Ltd., priority 2015, dated 2020).
Read-outs that look alike come from different tables or passages of the source.

Biological target: T1, G protein-coupled receptor 119 (GPR-119) (Mesocricetus auratus, UniProt A0A1U8CD06)
T1 construct: hamster-derived β-cells containing G protein-coupled receptor 119 (GPR-119), HIT-T15 cells; host or cells: HIT-T15 (hamster pancreatic β-cells)
T1 sequence (A0A1U8CD06 1-334): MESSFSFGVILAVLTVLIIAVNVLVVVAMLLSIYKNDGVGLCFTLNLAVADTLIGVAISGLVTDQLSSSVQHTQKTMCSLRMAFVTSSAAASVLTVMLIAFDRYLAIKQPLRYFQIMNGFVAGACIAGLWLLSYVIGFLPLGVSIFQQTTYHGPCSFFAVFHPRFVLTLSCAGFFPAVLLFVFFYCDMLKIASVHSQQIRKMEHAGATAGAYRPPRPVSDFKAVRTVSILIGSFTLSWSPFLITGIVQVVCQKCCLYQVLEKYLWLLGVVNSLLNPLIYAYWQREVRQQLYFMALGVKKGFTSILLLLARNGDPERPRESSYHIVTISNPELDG
Assay: cAMP activity in HIT-T15 cells (cAMP dynamic kit, FRET)
Type: cell-based, hamster
Method in brief: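 Hamster HIT-T15 cells (60,000/well) were treated next day with compound at six concentrations, 0.0032–10 μM, for 1 h at 37° C. Cells were then lysed and cAMP measured by competitive HTRF immunoassay (D2-cAMP, cryptate anti-cAMP). Activity was derived as the change in FRET signal relative to DMSO.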

[1] = 1 hour at 37° C., six concentrations 0.0032 to 10 μM, read-out: EC50

| SMILES | EC50 [1] | EC50 (Table 2, read-out: EC50 value) |
| --- | --- | --- |
| CCc1cnc(N2CCC(COc3ccc(C4=CCC(C(=O)N5CCCCC5)CC4)cc3C#N)CC2)nc1 (stereo not shown) [Example 385, 2-((1-(5-ethylpyrimidin-2-yl)piperidin-4-yl)methoxy)-5-(4-(piperidine-1-carbonyl)cyclohex-1-enyl)benzonitrile] | 45 nM | ≤ 50 nM |
| CC(OC(=O)N1CCC(COc2ccc(C3=CCC(C(=O)N4CCOCC4)CC3)cc2F)CC1)C(F)(F)F (stereo not shown) [Example 440, 1,1,1-trifluoropropan-2-yl 4-((2-fluoro-4-(4-(morpholine-4-carbonyl)cyclohex-1-enyl)phenoxy)methyl)piperidine-1-carboxylate] | 8.7 nM | ≤ 50 nM |
| CC(C)c1noc(N2CCC(COc3ccc(C4=CCC(C(=O)N5CCC(CCO)CC5)CC4)cc3F)CC2)n1 (stereo not shown) [Example 335, (4-(3-fluoro-4-((1-(3-isopropyl-1,2,4-oxadiazol-5-yl)piperidin-4-yl)methoxy)phenyl)cyclohex-3-enyl)(4-(2-hydroxyethyl)piperidin-1-yl)methanone] | 18 nM | ≤ 50 nM |
| CC1(OC(=O)N2CCC(COc3ccc(C4=CCC(C(=O)N5CCCC5)CC4)cc3F)CC2)CC1 (stereo not shown) [Example 408, 1-methylcyclopropyl 4-((2-fluoro-4-(4-(pyrrolidine-1-carbonyl)cyclohex-1-enyl)phenoxy)methyl)piperidine-1-carboxylate] | 25 nM | ≤ 50 nM |
| CC(C)(C)OC(=O)N1CCC(COc2ccc(C3=CCC(C(=O)N4CCCC4)CC3)nc2)CC1 (stereo not shown) [Example 312, tert-butyl 4-((6-(4-(pyrrolidine-1-carbonyl)cyclohex-1-enyl)pyridin-3-yloxy)methyl)piperidine-1-carboxylate] | 120 nM | – |
| CC(C)c1noc(N2CCC(COc3ccc(C4=CCC(C(=O)NC5CCCCC5)CC4)cc3F)CC2)n1 (stereo not shown) [Example 366, N-cyclohexyl-4-(3-fluoro-4-((1-(3-isopropyl-1,2,4-oxadiazol-5-yl)piperidin-4-yl)methoxy)phenyl)cyclohex-3-enecarboxamide] | 39 nM | ≤ 50 nM |
| CC(C)c1noc(N2CCC(COc3ccc(C4=CCC(C(=O)N5CCOCC5)CC4)cn3)CC2)n1 (stereo not shown) [Example 317, (4-(6-((1-(3-isopropyl-1,2,4-oxadiazol-5-yl)piperidin-4-yl)methoxy)pyridin-3-yl)cyclohex-3-enyl)(morpholino)methanone] | 50 nM | ≤ 50 nM |
| CCc1cnc(N2CCC(COc3ccc(C4=CCC(C(=O)N5CCC(N6CCCCC6)CC5)CC4)cc3F)CC2)nc1 (stereo not shown) [Example 297, 1,4′-bipiperidin-1′-yl(4-(4-((1-(5-ethylpyrimidin-2-yl)piperidin-4-yl)methoxy)-3-fluorophenyl)cyclohex-3-enyl)methanone] | 120 nM | – |
| CC(C)c1noc(N2CCC(COc3ccc(C4=CCC(C(=O)N5CCC5)CC4)cn3)CC2)n1 (stereo not shown) [Example 339, azetidin-1-yl(4-(6-((1-(3-isopropyl-1,2,4-oxadiazol-5-yl)piperidin-4-yl)methoxy)pyridin-3-yl)cyclohex-3-enyl)methanone] | 120 nM | – |
| CCc1cnc(N2CCC(COc3ccc(C4=CCC(C(=O)N5CCC5)CC4)cc3C#N)CC2)nc1 (stereo not shown) [Example 387, 5-(4-(azetidine-1-carbonyl)cyclohex-1-enyl)-2-((1-(5-ethylpyrimidin-2-yl)piperidin-4-yl)methoxy)benzonitrile] | 79 nM | – |
| CCc1cnc(N2CCC(COc3ccc(C4=CCC(C(=O)N5CCSCC5)CC4)cc3C)CC2)nc1 (stereo not shown) [Example 418, (4-(4-((1-(5-ethylpyrimidin-2-yl)piperidin-4-yl)methoxy)-3-methylphenyl)cyclohex-3-enyl)(thiomorpholino)methanone] | 35 nM | ≤ 50 nM |
| CC(C)c1noc(N2CCC(COc3ccc(C4=CCC(C(=O)N5CCN(C6CC6)CC5)CC4)cn3)CC2)n1 (stereo not shown) [Example 355, (4-cyclopropylpiperazin-1-yl)(4-(6-((1-(3-isopropyl-1,2,4-oxadiazol-5-yl)piperidin-4-yl)methoxy)pyridin-3-yl)cyclohex-3-enyl)methanone] | 46 nM | ≤ 50 nM |
| CC(C)c1noc(N2CCC(COc3ccc(C4=CCC(C(=O)N5CCSCC5)CC4)c(F)c3)CC2)n1 (stereo not shown) [Example 449, (4-(2-fluoro-4-((1-(3-isopropyl-1,2,4-oxadiazol-5-yl)piperidin-4-yl)methoxy)phenyl)cyclohex-3-enyl)(thiomorpholino)methanone] | 33 nM | ≤ 50 nM |
| CC(C)c1noc(N2CCC(COc3ccc(C4=CCC(C(=O)N5CCC5)CC4)cc3F)CC2)n1 (stereo not shown) [Example 330, azetidin-1-yl(4-(3-fluoro-4-((1-(3-isopropyl-1,2,4-oxadiazol-5-yl)piperidin-4-yl)methoxy)phenyl)cyclohex-3-enyl)methanone] | 35 nM | ≤ 50 nM |
| CCc1cnc(N2CCC(COc3ccc(C4=CCC(C(=O)N5CCCC5)CC4)cc3F)CC2)nc1 (stereo not shown) [Example 293, (4-(4-((1-(5-ethylpyrimidin-2-yl)piperidin-4-yl)methoxy)-3-fluorophenyl)cyclohex-3-enyl)(pyrrolidin-1-yl)methanone] | 18 nM | ≤ 50 nM |
| CCc1cnc(N2CCC(COc3ccc(C4=CCC(C(=O)N5CCCC5)CC4)cc3C(F)(F)F)CC2)nc1 (stereo not shown) [Example 374] | 150 nM | – |
| CCc1cnc(N2CCC(COc3ccc(C4=CCC(C(=O)N5CCNCC5)CC4)cc3F)CC2)nc1 (stereo not shown) [Example 434, (4-(4-((1-(5-ethylpyrimidin-2-yl)piperidin-4-yl)methoxy)-3-fluorophenyl)cyclohex-3-enyl)(piperazin-1-yl)methanone] | 180 nM | – |
| O=C(NCCO)C1CC=C(c2ccc(OCC3CCN(c4ncc(Br)cn4)CC3)cc2)CC1 (stereo not shown) [Example 357, 4-(4-((1-(5-bromopyrimidin-2-yl)piperidin-4-yl)methoxy)phenyl)-N-(2-hydroxyethyl)cyclohex-3-enecarboxamide] | 150 nM | – |
| CC(C)c1noc(N2CCC(COc3ccc(C4=CCC(C(=O)N5CCSCC5)CC4)cn3)CC2)n1 (stereo not shown) [Example 318, (4-(6-((1-(3-isopropyl-1,2,4-oxadiazol-5-yl)piperidin-4-yl)methoxy)pyridin-3-yl)cyclohex-3-enyl)(thiomorpholino)methanone] | 38 nM | ≤ 50 nM |
| CC(C)c1noc(N2CCC(COc3ccc(C4=CCC(C(=O)N5CCC(=O)C5)CC4)cc3)CC2)n1 (stereo not shown) [Example 251] | 22 nM | ≤ 50 nM |
| CCC(F)(F)C(=O)N1CCC(COc2ccc(C3=CCC(C(=O)N4CCOCC4)CC3)cc2F)CC1 (stereo not shown) [Example 439, 2,2-difluoro-1-(4-((2-fluoro-4-(4-(morpholine-4-carbonyl)cyclohex-1-enyl)phenoxy)methyl)piperidin-1-yl)butan-1-one] | 5.9 nM | ≤ 50 nM |
| CCc1cnc(N2CCC(COc3ccc(C4=CCC(C(=O)N5CCSCC5)CC4)cn3)CC2)nc1 (stereo not shown) [Example 352, (4-(6-((1-(5-ethylpyrimidin-2-yl)piperidin-4-yl)methoxy)pyridin-3-yl)cyclohex-3-enyl)(thiomorpholino)methanone] | 63 nM | – |
| CCc1cnc(N2CCC(COc3ccc(C4=CCC(C(=O)N5CC(O)C5)CC4)cc3F)CC2)nc1 (stereo not shown) [Example 309, (4-(4-((1-(5-ethylpyrimidin-2-yl)piperidin-4-yl)methoxy)-3-fluorophenyl)cyclohex-3-enyl)(3-hydroxyazetidin-1-yl)methanone] | 11 nM | ≤ 50 nM |
| CCc1cnc(N2CCC(COc3ccc(C4=CCC(C(=O)N5CCCCC5)CC4)cc3C)CC2)nc1 (stereo not shown) [Example 415, (4-(4-((1-(5-ethylpyrimidin-2-yl)piperidin-4-yl)methoxy)-3-methylphenyl)cyclohex-3-enyl)(piperidin-1-yl)methanone] | 55 nM | – |
| CC(C)c1noc(N2CCC(COc3ccc(C4=CCC(C(=O)N5CCCCC5)CC4)cc3F)CC2)n1 (stereo not shown) [Example 332, (4-(3-fluoro-4-((1-(3-isopropyl-1,2,4-oxadiazol-5-yl)piperidin-4-yl)methoxy)phenyl)cyclohex-3-enyl)(piperidin-1-yl)methanone] | 6.7 nM | ≤ 50 nM |
| CC(C)=CC(=O)N1CCC(COc2ccc(C3=CCC(C(=O)N4CCOCC4)CC3)cc2F)CC1 (stereo not shown) [Example 451, 1-(4-((2-fluoro-4-(4-(morpholine-4-carbonyl)cyclohex-1-enyl)phenoxy)methyl)piperidin-1-yl)-3-methylbut-2-en-1-one] | 89 nM | – |
| CC(C)(C)OC(=O)N1CCC(COc2ccc(C3=CCC(C(=O)N4CCC(CCO)CC4)CC3)nc2)CC1 (stereo not shown) [Example 326, tert-butyl 4-((6-(4-(4-(2-hydroxyethyl)piperidine-1-carbonyl)cyclohex-1-enyl)pyridin-3-yloxy)methyl)piperidine-1-carboxylate] | 70 nM | – |
| CCc1cnc(N2CCC(COc3ccc(C4=CCC(C(=O)N5CCSCC5)CC4)c(F)c3)CC2)nc1 (stereo not shown) [Example 423, (4-(4-((1-(5-ethylpyrimidin-2-yl)piperidin-4-yl)methoxy)-2-fluorophenyl)cyclohex-3-enyl)(thiomorpholino)methanone] | 19 nM | ≤ 50 nM |
| CCc1cnc(N2CCC(COc3ccc(C4=CCC(C(=O)N5C/C(=N\OC)C(CO)(CO)C5)CC4)cc3)CC2)nc1 (stereo not shown) [Example 253, (Z)-(3,3-bis(hydroxymethyl)-4-(methoxyimino)pyrrolidin-1-yl)(4-(4-((1-(5-ethylpyrimidin-2-yl)piperidin-4-yl)methoxy)phenyl)cyclohex-3-enyl)methanone] | – | ≤ 50 nM |
